The text below walks through data of patent publication US7423054B2, “Therapeutic pyrazolo[3,4-b]pyridines and indazoles” (Warner Lambert Company LLC, priority 2004, dated 2008).

Broadly, the Ki is a dissociation constant, usually derived from enzyme kinetics or from competition with a known ligand.

Each structure is given as a SMILES string. Where a name gives a salt, the structure may show the parent alone.

Test [1] concerns the target T1, human norepinephrine transporter (hNET) (Homo sapiens, UniProt P23975).
T1 construct: expressed in transfected cells; host or cells: HEK-293 cells (membrane preparation)
Kind of test: hNET receptor binding ([125I]-RTI-55 displacement, membranes of transfected HEK-293 cells). The settings on record: HEK-293 membranes, Ki from IC50 by Cheng-Prusoff, read-out: NET Ki. From the text: (§1) The ability of the compounds of the present invention to inhibit a norepinephrine transporter and/or a serotonin transporter can be determined using conventional radioligand receptor transport assays. The receptors can be heterologously expressed in cell lines and experiments conducted in membrane preparations from the cell lines that express a norepinephrine transporter and/or a serotonin transporter.
Cell pastes of HEK-293 cells transfected with a human norepinephrine transporter cDNA were prepared. The cell pastes were resuspended in 400 to 700 ml of Krebs-HEPES assay buffer (25 mM HEPES, 122 mM NaCl, 3 mM KCl, 1.2 mM MgSO4, 1.3 mM CaCl2, and 11 mM glucose, pH 7.4) with a Polytron homogenizer at setting 7 for 30 seconds. Aliquots of membranes (5 mg/ml protein) were stored in liquid nitrogen until used.
The binding assay was set up in Beckman deep-well polypropylene plates with a total volume of 250 μl containing: test compound (10^−5M to 10^−12M), cell membranes, and 50 pM [^125I]-RTI-55 (Perkin Elmer, NEX-272; specific activity 2200 Ci/mmol). The reaction was incubated by gentle agitation for 90 minutes at room temperature and was terminated by filtration through Whatman GF/C filter plates using a Brandel 96-well plate harvester. Scintillation fluid (100 μl) was added to each well, and bound [^125I]-RTI-55 was determined using a Wallac Trilux Beta Plate Counter. Test compounds were run in duplicate, and specific binding was defined as the difference between binding in the presence and absence of 10 μM desipramine.
Excel and GraphPad Prism software were used for data calculation and analysis. IC50 values were converted to Ki values using the Cheng-Prusoff equation. The Ki values (nM) for the hNET are reported below in Table 11.

Test [2] addresses T2, human serotonin transporter (hSERT) (Homo sapiens, UniProt P31645).
T2 construct: expressed in transfected cells; host or cells: HEK-293 cells (membrane preparation)
Kind of test: hSERT receptor binding ([125I]-RTI-55 displacement, membranes of transfected HEK-293 cells). The note with it: HEK-293 membranes, Ki from IC50 by Cheng-Prusoff, read-out: SERT Ki. The protocol:
as §1
Cell pastes of HEK-293 cells transfected with a human serotonin transporter cDNA were prepared. The cell pastes were resuspended in 400 to 700 ml of Krebs-HEPES assay buffer (25 mM HEPES, 122 mM NaCl, 3 mM KCl, 1.2 mM MgSO4, 1.3 mM CaCl2, and 11 mM glucose, pH 7.4) with a Polytron homogenizer at Setting 7 for 30 seconds. Aliquots of membranes (˜2.5 mg/ml protein) were stored in liquid nitrogen until used.
Assays were set up in FlashPlates pre-coated with 0.1% PEI in a total volume of 250 μl containing: test compound (10^−5M to 10^−12M), cell membranes, and 50 pM [^125I]-RTI-55 (Perkin Elmer, NEX-272; specific activity 2200 Ci/mmol). The reaction was incubated and gently agitated for 90 minutes at room temperature, and terminated by removal of assay volume. Plates were covered, and bound [^125I]-RTI-55 was determined using a Wallac Trilux Beta Plate Counter. Test compounds were run in duplicate, and specific binding was defined as the difference between binding in the presence and absence of 10 μM citalopram.
Excel and GraphPad Prism software were used for data calculation and analysis. IC50 values were converted to Ki values using the Cheng-Prusoff equation. The Ki values (nM) for the hSERT are reported below in Table 11: […]

T2 sequence (P31645 whole entry): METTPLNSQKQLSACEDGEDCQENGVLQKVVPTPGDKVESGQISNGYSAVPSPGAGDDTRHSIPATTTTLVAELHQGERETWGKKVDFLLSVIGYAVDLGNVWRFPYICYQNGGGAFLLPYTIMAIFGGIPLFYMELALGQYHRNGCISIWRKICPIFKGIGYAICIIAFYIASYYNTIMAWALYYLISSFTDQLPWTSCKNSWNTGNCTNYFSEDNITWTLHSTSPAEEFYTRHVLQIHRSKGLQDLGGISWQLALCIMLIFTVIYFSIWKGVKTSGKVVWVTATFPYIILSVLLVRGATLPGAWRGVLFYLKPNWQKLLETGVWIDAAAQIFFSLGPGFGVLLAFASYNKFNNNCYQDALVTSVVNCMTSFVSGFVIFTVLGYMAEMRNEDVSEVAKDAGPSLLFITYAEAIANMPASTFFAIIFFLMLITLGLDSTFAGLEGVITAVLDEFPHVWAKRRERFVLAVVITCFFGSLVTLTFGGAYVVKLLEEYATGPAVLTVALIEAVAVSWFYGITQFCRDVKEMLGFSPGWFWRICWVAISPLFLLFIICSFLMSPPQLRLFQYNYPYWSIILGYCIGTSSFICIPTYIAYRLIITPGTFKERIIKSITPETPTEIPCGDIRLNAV
T1 sequence (P23975 whole entry): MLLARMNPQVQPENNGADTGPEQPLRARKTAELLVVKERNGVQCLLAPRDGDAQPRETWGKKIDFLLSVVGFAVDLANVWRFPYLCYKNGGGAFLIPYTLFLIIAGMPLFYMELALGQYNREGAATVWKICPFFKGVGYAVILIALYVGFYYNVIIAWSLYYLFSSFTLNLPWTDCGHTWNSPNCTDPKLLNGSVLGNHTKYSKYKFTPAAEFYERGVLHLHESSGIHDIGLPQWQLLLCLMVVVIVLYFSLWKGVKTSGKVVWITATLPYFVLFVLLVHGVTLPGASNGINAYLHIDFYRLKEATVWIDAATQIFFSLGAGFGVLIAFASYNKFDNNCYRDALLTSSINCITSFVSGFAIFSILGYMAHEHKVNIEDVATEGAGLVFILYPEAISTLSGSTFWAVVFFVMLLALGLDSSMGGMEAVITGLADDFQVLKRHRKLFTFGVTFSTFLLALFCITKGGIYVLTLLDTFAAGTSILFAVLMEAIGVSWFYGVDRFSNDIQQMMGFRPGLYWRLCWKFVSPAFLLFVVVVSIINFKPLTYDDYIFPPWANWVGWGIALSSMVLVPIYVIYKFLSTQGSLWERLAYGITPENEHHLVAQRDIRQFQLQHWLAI

For `Fc1ccc(-n2nc(OC[C@H]3CCNC3)c3ccccc32)cc1F` [Example 35, (S)-1-(3,4-Difluoro-phenyl)-3-(pyrrolidin-3-ylmethoxy)-1H-indazole hydrochloride], the figures for the Ki in test [1] and in test [2] were 24 nM and 82.6 nM, respectively.
As for `Fc1cccc(F)c1-n1nc(OC2CCNCC2)c2ccccc21` [Example 36, 1-(2,6-Difluoro-phenyl)-3-(piperidin-4-yloxy)-1H-indazole hydrochloride], the values for the Ki in test [1] and in test [2] were 5.16 nM and 82.7 nM, respectively.
With `Fc1cccc(F)c1-n1nc(OC[C@H]2CCNC2)c2ccccc21` [Example 37, (S)-1-(2,6-Difluoro-phenyl)-3-(pyrrolidin-3-ylmethoxy)-1H-indazole hydrochloride], the Ki was determined as 6.05 nM in test [1] and 105 nM in test [2].
For the compound `Fc1ccc(F)c(-n2nc(OC[C@H]3CCCNC3)c3ccccc32)c1` [Example 38, (S)-1-(2,5-Difluoro-phenyl)-3-(piperidin-3-ylmethoxy)-1H-indazole hydrochloride], the Ki in test [1] was found to be 6.09 nM; in test [2], 199 nM.
The like results for `Fc1ccc(F)c(-n2nc(OC3CCNCC3)c3cc(F)ccc32)c1` [Example 39, 1-(2,5-Difluoro-phenyl)-5-fluoro-3-(piperidin-4-yloxy)-1H-indazole hydrochloride] were, in that order, 9.57 nM and 34.4 nM.
The like results for `Fc1ccc(F)c(-n2nc(OC[C@@H]3CCNC3)c3cc(F)ccc32)c1` [Example 40, (R)-1-(2,5-Difluoro-phenyl)-5-fluoro-3-(pyrrolidin-3-ylmethoxy)-1H-indazole hydrochloride] were, in that order, 5.02 nM and 30.8 nM.
For the compound `Clc1ccc(-n2nc(OC3CCNCC3)c3ccccc32)cc1` [Example 41, 1-(4-Chloro-phenyl)-3-(piperidin-4-yloxy)-1H-indazole hydrochloride], the inhibition constant Ki in test [1] came to 299 nM; in test [2] it was 79.7 nM.
On to `c1ccc(-n2nc(OC[C@H]3CCCNC3)c3ccccc32)nc1` [Example 44, (S)-(−)-3-(Piperidin-3-ylmethoxy)-1-pyridin-2-yl-1H-indazole maleate], for which the Ki was determined as 100 nM in test [1] and 365 nM in test [2].
The like results for `Fc1ccc2c(c1)c(OC[C@@H]1CNCCO1)nn2-c1ccccc1F` [Example 46, (S)-(+)-5-Fluoro-1-(2-fluorophenyl)-3-(morpholin-2-ylmethoxy)-1H-indazole maleate] were, in that order, 5.7 nM and 413 nM.
The like results for `Fc1ccc(-n2nc(OC[C@H]3CCCNC3)c3cc(F)ccc32)c(F)c1` [Example 49, (S)-(−)-1-(2,4-Difluorophenyl)-5-fluoro-3-(piperidin-3-ylmethoxy)-1H-indazole hydrochloride] were, in that order, 98.5 nM and 20.5 nM.
`Fc1ccc2c(c1)c(OC[C@@H]1CNCCO1)nn2-c1c(F)cccc1F` [Example 50, (S)-1-(2,6-Difluoro-phenyl)-5-fluoro-3-(morpholin-2-ylmethoxy)-1H-indazole hydrochloride]: the Ki in test [1] came to 5.2 nM; in test [2], 1140 nM.
The like results for `CC1(COc2nn(-c3ccccc3F)c3ccc(F)cc23)CCCNC1` (stereo not shown) [Example 52] were, in that order, 35.7 nM and 45.4 nM.
The like results for `CC1(COc2nn(-c3ccccc3F)c3ccccc23)CCCNC1` (stereo not shown) [Example 53, 1-(2-Fluoro-phenyl)-3-(3-methyl-piperidin-3-ylmethoxy)-1H-indazole hydrogen chloride] were, in that order, 54.1 nM and 146 nM.
`CC1(COc2nn(-c3ccccc3F)c3ccc(F)cc23)CCNCC1` [Example 54, 5-Fluoro-1-(2-fluoro-phenyl)-3-(4-methyl-piperdin-4-ylmethoxy)-1H-indazole hydrogen chloride]: the results for the Ki in test [1] and in test [2] were 274 nM and 28.5 nM, respectively.
The like results for `Fc1ccc2c(c1)c(OC[C@@H]1CCCNC1)nn2-c1ccccc1F` [Example 55, (R)-5-Fluoro-1-(2-fluoro-phenyl)-3-(piperidin-3-ylmethoxy)-1H-indazole maleate] were, in that order, 71.2 nM and 126 nM.
As to `Fc1ccc(F)c(-n2nc(OC3CCNCC3)c3cc(Cl)ccc32)c1` [Example 58, 5-Chloro-1-(2,5-difluoro-phenyl)-3-(piperidin-4-yloxy)-1H-indazole hydrochloride], the Ki in test [1] turned out to be 56 nM; in test [2], 134 nM.
The like results for `Cc1cccc2c(OC3CCNCC3)nn(-c3ccccc3)c12` [Example 59, 7-Methyl-1-phenyl-3-(piperidin-4-yloxy)-1H-indazole hydrochloride] were, in that order, 69.1 nM and 32.7 nM.
The like results for `COc1cccc2c(OC3CCNCC3)nn(-c3ccccc3)c12` [Example 60, 7-Methoxy-1-phenyl-3-(piperidin-4-yloxy)-1H-indazole hydrochloride] were, in that order, 221 nM and 76.7 nM.
The like results for `Clc1cccc2c(OC3CCNCC3)nn(-c3ccccc3)c12` [Example 61, 7-Chloro-1-phenyl-3-(piperidin-4-yloxy)-1H-indazole hydrochloride] were, in that order, 20.4 nM and 21.7 nM.
As for `Cc1cccc2c1c(OC1CCNCC1)nn2-c1ccccc1` [Example 62, 4-Methyl-1-phenyl-3-(piperidin-4-yloxy)-1H-indazole hydrochloride], the results for the Ki in test [1] and in test [2] were 495 nM and 314 nM, respectively.
The like results for `Fc1ccc2c(OC3CCNCC3)nn(-c3ccccc3F)c2c1` [Example 63, 6-Fluoro-1-(2-fluoro-phenyl)-3-(piperidin-4-yloxy)-1H-indazole hydrochloride] were, in that order, 39.5 nM and 19.4 nM.
Turning to `Clc1ccc2c(OC3CCNCC3)nn(-c3ccccc3)c2c1` [Example 64, 6-Chloro-1-phenyl-3-(piperidin-4-yloxy)-1H-indazole hydrochloride], the Ki in test [1] was found to be 512 nM; in test [2], 272 nM.
For the compound `Fc1ccccc1-n1nc(OC2CCNCC2)c2cccc(C(F)(F)F)c21` [Example 65, 1-(2-fluorophenyl)-3-(piperidin-4-yloxy)-7-(trifluoromethyl)-1H-indazole hydrochloride], the inhibition constant (Ki) in test [1] came out at 4330 nM; in test [2], 81.2 nM.
Turning to `Cc1ccc2c(OC3CCNCC3)nn(-c3ccccc3)c2c1` [Example 71, 6-Methyl-1-phenyl-3-(piperidin-4-yloxy)-1H-indazole hydrochloride], the Ki turned out to be 95.5 nM in test [1] and 20.5 nM in test [2].
Consider `Cc1ccc2c(OC3CCNCC3)nn(-c3ccccc3F)c2c1` [Example 72, 1-(2-Fluoro-phenyl)-6-methyl-3-(piperidin-4-yloxy)-1H-indazole hydrochloride], for which the inhibition constant (Ki) turned out to be 27.4 nM in test [1] and 9.76 nM in test [2].
The like results for `Fc1ccccc1-n1nc(OCC2CCCNC2)c2cc(Cl)ccc21` (stereo not shown) [Example 73, 5-Chloro-1-(2-fluoro-phenyl)-3-(piperidin-3-ylmethoxy)-1H-indazole hydrochloride] were, in that order, 29.3 nM and 304 nM.
The like results for `Cc1ccc2c(OCC3CCCNC3)nn(-c3ccccc3F)c2c1` (stereo not shown) [Example 74, 1-(2-Fluoro-phenyl)-6-methyl-3-(piperidin-3-ylmethoxy)-1H-indazole hydrochloride] were, in that order, 60.5 nM and 792 nM.
The like results for `Fc1cc2c(OC3CCNCC3)nn(-c3ccccc3F)c2cc1F` [Example 75, 5,6-Difluoro-1-(2-fluoro-phenyl)-3-(piperidin-4-yloxy)-1H-indazole hydrochloride] were, in that order, 36.4 nM and 39.8 nM.
With `Fc1cc2c(OCC3CCCNC3)nn(-c3ccccc3F)c2cc1F` (stereo not shown) [Example 76, 5,6-Difluoro-1-(2-fluoro-phenyl)-3-(piperidin-3-ylmethoxy)-1H-indazole hydrochloride], the Ki in test [1] was 40.4 nM; in test [2], 158 nM.
